These results are taken from patent US10364222B2, “Cyclic amine derivative and medical use thereof” (Toray Industries, Inc., priority 2016, dated 2019).

This assay relates to IL-17 production in mouse splenocytes. In words: Suppressive effect on IL-17 production by IL-23 stimulation in mouse splenocytes. Type of assay: cell-based. The conditions noted are these: Splenocyte, 72 h, at 5 μmol/L of the test compound, 10 ng/mL human IL-23, 3 days, read-out: IL-17 production inhibition rate (%). The protocol:
Using mouse splenocytes, the suppressive effect of the cyclic amine derivative (I) or a pharmacologically acceptable salt thereof on IL-17 production by IL-23 stimulation was evaluated by a partially modified method mentioned in The Journal of Biological Chemistry, 2003, Vol. 278, No. 3, p. 1910-1914.
A single cell suspension was prepared from the spleen of C57BL/6J mice (male, 7 to 23 weeks old) (Charles River Laboratories Japan, Inc.) and splenocytes were prepared using Histopaque-1083 (Sigma-Aldrich Japan). The culture medium was used by adding 10% FBS (Gibco), 50 U/mL of penicillin 50 μg/mL of streptomycin (Gibco), 50 μmol/L of 2-mercaptoethanol (Gibco), and 100 U/mL of human IL-2 (Cell Science & Technology Institute, Inc.) to RPMI1640 medium (Gibco). The test compound was dissolved in DMSO and then diluted with the culture medium to have a final concentration of DMSO of 0.1% before use. Splenocytes (3×10^5 cells/well) prepared in the culture medium were seeded in wells of a 96-well flat-bottom plate (Corning Incorporated), the test compound and 10 ng/mL of human IL-23 (R & D systems, Inc.) were added thereto, and the cells were cultured at 37° C. under 5% CO2 for 3 days. A well without addition of human IL-23 and without addition of the test compound and a well with addition of human IL-23 and without addition of the test compound were prepared. After completion of the culture, the culture supernatant was collected and the IL-17 production amount in the supernatant was determined by ELISA method (R & D systems, Inc.).
The IL-17 production inhibition rate (%) was calculated from Formula 2. IL-17 production inhibition rate(%)=(1−((IL-17 production amount with addition of IL-23 and with addition of the test compound)−(IL-17 production amount without addition of IL-23 and without addition of the test compound))/((IL-17 production amount with addition of IL-23 and without addition of the test compound)−(IL-17 production amount without addition of IL-23 and without addition of the test compound)))×100 Formula 2
Broadly, the inhibition is the share of the control response that was lost under treatment. On to `CN(C)CC(=O)N1CCCCC1C(=O)Nc1ccc(-c2ccccc2OC(F)(F)F)c(Cl)c1` (stereo not shown) [Example 6, N-(2-chloro-2′-(trifluoromethoxy)-[1,1′-biphenyl]-4-yl)-1-(2-(dimethylamino)acetyl)piperidine-2-carboxamide], for which the inhibition at 5 µM turned out to be 91.6%. For `O=C(Nc1ccc(-c2ccccc2OC(F)(F)F)c(Cl)c1)C1CCCCN1C(=O)C(F)F` (stereo not shown) [Example 7, N-(2-chloro-2′-(trifluoromethoxy)-[1,1′-biphenyl]-4-yl)-1-(2,2-difluoroacetyl)piperidine-2-carboxamide], the inhibition at 5 µM worked out at 99%.

`CC(=O)NCC(=O)N1CCCCC1C(=O)Nc1ccc(-c2ccccc2OC(F)(F)F)c(Cl)c1` (stereo not shown) [Example 9, 1-(2-acetamideacetyl)-N-(2-chloro-2′-(trifluoromethoxy)-[1,1′-biphenyl]-4-yl)piperidine-2-carboxamide]: the inhibition at 5 µM was determined as 94.6%. On to `CNCC(=O)N1CCCCC1C(=O)Nc1ccc(-c2ccccc2OC(F)(F)F)c(Cl)c1` (stereo not shown) [Example 11, N-(2-chloro-2′-(trifluoromethoxy)-[1,1′-biphenyl]-4-yl)-1-(2-(methylamino)acetyl)piperidine-2-carboxamide], for which the inhibition at 5 µM came out at 94.1%. Regarding `CC(=O)N(C)CC(=O)N1CCCCC1C(=O)Nc1ccc(-c2ccccc2OC(F)(F)F)c(Cl)c1` (stereo not shown) [Example 12, N-(2-chloro-2′-(trifluoromethoxy)-[1,1′-biphenyl]-4-yl)-1-(2-(N-methylacetamide)acetyl)piperidine-2-carboxamide], the inhibition at 5 µM amounted to 96.1%. For `CC(=O)N1CC[C@H](O)C[C@@H]1C(=O)Nc1ccc(-c2ccccc2OC(F)(F)F)c(Cl)c1` [Example 24, (2R,4S)-1-acetyl-N-(2-chloro-2′-(trifluoromethoxy)-[1,1′-biphenyl]-4-yl)-4-hydroxypiperidine-2-carboxamide], the inhibition at 5 µM worked out at 95.7%. For `CS(=O)(=O)N1CC[C@H](O)C[C@@H]1C(=O)Nc1ccc(-c2ccccc2OC(F)(F)F)c(Cl)c1` [Example 26, (2R,4S)—N-(2-chloro-2′-(trifluoromethoxy)-[1,1′-biphenyl]-4-yl)-4-hydroxy-1-(methylsulfonyl)piperidine-2-carboxamide], the inhibition at 5 µM was 96.4%. On to `CC(=O)N1CC[C@@H](O)C[C@@H]1C(=O)Nc1ccc(-c2ccccc2OC(F)(F)F)c(Cl)c1` [Example 27, (2R,4R)-1-acetyl-N-(2-chloro-2′-(trifluoromethoxy)-[1,1′-biphenyl]-4-yl)-4-hydroxypiperidine-2-carboxamide], for which the inhibition at 5 µM was 97.4%. Then `NCCC(=O)N1CCCCC1C(=O)Nc1ccc(-c2ccccc2OC(F)(F)F)c(Cl)c1` (stereo not shown) [Example 30, 1-(3-aminopropanoyl)-N-(2-chloro-2′-(trifluoromethoxy)-[1,1′-biphenyl]-4-yl)piperidine-2-carboxamide], with 99.8%. Then `CC(=O)NCCC(=O)N1CCCCC1C(=O)Nc1ccc(-c2ccccc2OC(F)(F)F)c(Cl)c1` (stereo not shown) [Example 31, 1-(3-acetamidepropanoyl)-N-(2-chloro-2′-(trifluoromethoxy)-[1,1′-biphenyl]-4-yl)piperidine-2-carboxamide], with 99.1%; and `CN(C)CCC(=O)N1CCCCC1C(=O)Nc1ccc(-c2ccccc2OC(F)(F)F)c(Cl)c1` (stereo not shown) [Example 33, N-(2-chloro-2′-(trifluoromethoxy)-[1,1′-biphenyl]-4-yl)-1-(3-(dimethylamino)propanoyl)piperidine-2-carboxamide], with 98.3%; and `CNCCC(=O)N1CCCCC1C(=O)Nc1ccc(-c2ccccc2OC(F)(F)F)c(Cl)c1` (stereo not shown) [Example 34, N-(2-chloro-2′-(trifluoromethoxy)-[1,1′-biphenyl]-4-yl)-1-(3-(methylamino)propanoyl)piperidine-2-carboxamide], with 100%. Turning to `CC(=O)N(C)CCC(=O)N1CCCCC1C(=O)Nc1ccc(-c2ccccc2OC(F)(F)F)c(Cl)c1` (stereo not shown) [Example 35, N-(2-chloro-2′-(trifluoromethoxy)-[1,1′-biphenyl]-4-yl)-1-(3-(N-methylacetamide)propanoyl)piperidine-2-carboxamide], the inhibition at 5 µM was determined as 94.9%. With `NCCC(=O)N1CCCC[C@@H]1C(=O)Nc1ccc(-c2ccccc2OC(F)(F)F)c(Cl)c1` [Example 38, (R)-1-(3-aminopropanoyl)-N-(2-chloro-2′-(trifluoromethoxy)-[1,1′-biphenyl]-4-yl)piperidine-2-carboxamide], the inhibition at 5 µM was 99%. For `CNCCC(=O)N1CCCC[C@@H]1C(=O)Nc1ccc(-c2ccccc2OC(F)(F)F)c(Cl)c1` [Example 41, (R)-N-(2-chloro-2′-(trifluoromethoxy)-[1,1′-biphenyl]-4-yl)-1-(3-(methylamino)propanoyl)piperidine-2-carboxamide] the value was 99.1%; for `O=C(Nc1ccc(-c2ccccc2OC(F)(F)F)c(Cl)c1)[C@H]1CCCCN1C(=O)Cn1cnnc1` [Example 62, (R)-1-(2-(4H-1,2,4-triazol-4-yl)acetyl)-N-(2-chloro-2′-(trifluoromethoxy)-[1,1′-biphenyl]-4-yl)piperidine-2-carboxamide], 100%; for `O=C(Nc1ccc(-c2ccccc2OC(F)(F)F)c(Cl)c1)[C@H]1CCCCN1C(=O)Cn1cncn1` [Example 63, (R)-1-(2-(1H-1,2,4-triazol-1-yl)acetyl)-N-(2-chloro-2′-(trifluoromethoxy)-[1,1′-biphenyl]-4-yl)piperidine-2-carboxamide], 99.9%. In the case of `CN(C)CCC(=O)N1CCCC[C@@H]1C(=O)Nc1ccc(-c2ccccc2OC(F)(F)F)c(Cl)c1` [Example 68, (R)-N-(2-chloro-2′-(trifluoromethoxy)-[1,1′-biphenyl]-4-yl)-1-(3-(dimethylamino)propanoyl)piperidine-2-carboxamide], the inhibition at 5 µM amounted to 99.4%. For `O=C(O)CCCC(=O)N1CCCC[C@@H]1C(=O)Nc1ccc(-c2ccccc2OC(F)(F)F)c(Cl)c1` [Example 70, (R)-5-(2-((2-chloro-2′-(trifluoromethoxy)-[1,1′-biphenyl]-4-yl)carbamoyl)piperidin-1-yl)-5-oxopentanoic acid] the value was 99.7%.
